Source: patent publication US10610514B2, “Composition comprising compound inhibiting interactions of MBD2 and P66α for anti-metastasis and prevention and treatment of cancer disease” (Industry-University Cooperation Foundation Hanyang …, priority 2016, dated 2020)
Like-named read-outs stand apart in the source and are kept apart here.

Legend:
MEL cells = experiment: Western blotting of cell cycle- and apoptosis-associated marker proteins in MEL cells; assay type: cell-based, murine
Text: In addition, as a western blotting result to show the change in the expression of cell cycle-associated marker proteins according to the concentration and time of the treated compound of Formula 1, it was confirmed that all activities of cyclin/CDK controlling the checkpoints of the cell cycle were decreased. Therefore, referring to FIG. 13, it was seen that overall progression of the cell cycle was inhibited by the treatment with the compound of Formula 1, and aneuploidy and cell death were induced.

[1] = system: lymphoid leukemia cell lines (Raji, Molt4, IM9, Jurkat, CCRF-CEM, and Daudi); experiment: MTT assay cell viability, lymphoid leukemia cell lines; assay type: cell-based; details: average
Procedure: (§1) Lymphoid leukemia cell lines (Raji, Molt4, IM9, Jurkat, CCRF-CEM, and Daudi), leukemia cell lines (KCL22, MEL, THP-1, HL60, HEL, U937, KG-1, and K562), and solid tumor cell lines (HCT116 colorectal cancer cell line, BEAS2B lung epithelial cell line, 293T fetus kidney epithelial cell line, Hep3B liver cancer cell line, MCF7 and MDA-MB-231 breast cancer cell lines, MCF10A breast epithelial cell line, and U373MG brain tumor cell line) were treated with a compound at different concentrations (0, 1, 10, 100, 1,000, and 10,000 μM), cultured for 4 days, and subjected to MTT assay every 24 hours to measure cell viability. 48 hours after the treatment with the compound, a morphological change of the cells was observed, and cell images were taken. IC50 values caused by the treatment with each compound were calculated using the Graph Prism Pad 6 program.

[2] = system: leukemia cell lines (KCL22, MEL, THP-1, HL60, HEL, U937, KG-1, and K562); experiment: MTT assay cell viability, leukemia cell lines; assay type: cell-based
Procedure: as §1

[3] = system: HCT116 and MDA-MB-231 cell lines; experiment: Western blotting of EMT-associated marker proteins; assay type: cell-based; details: 10 μM, 48 hours
Text: Therefore, the compounds of Formulas 1 and 2 according to the present invention may be excellent leading materials in the development of therapeutic agents for metastasis.

[4] = system: MDA-MB-231, HCT116, MEL and HL60 cell lines; experiment: In vitro cancer cell migration and invasion, Trans-well insert; assay type: cell-based; details: 10 μM, in comparison with controls, all cell lines
Procedure: Accordingly, to confirm whether EMT and metastasis are inhibited by the treatment with the compounds of Formulas 1 and 2, in vitro cancer cell migration and invasion abilities were analyzed, and the result is shown in FIGS. 3A and 3B below.

[5] = system: solid tumor cell lines (HCT116, BEAS2B, 293T, Hep3B, MCF7, MDA-MB-231, MCF10A, U373MG); experiment: MTT assay cell viability, solid tumor cell lines; assay type: cell-based; details: average
Procedure: as §1

MEL cell line [6] = experiment: Leukemia cell line-implanted animal model (MEL cell line intravenously injected into immunodeficient mice); assay type: in vivo
Text: The result is shown in FIGS. 9A, 9B, 9C, 9D, 9E, 9F, 9G, 9H, 9I and 9J below.
However, a white blood cell level was reduced due to the treatment with the compound at a slightly higher concentration, but the histological characteristics of the major organs as well as the overall hematological characteristics were normal (FIGS. 9D and 9E).
Meanwhile, to confirm whether the compound of Formula 1 can treat tumors generated in the animal models, the MEL cell line was intravenously injected, after 7 days, the compound of Formula 1 was intravenously injected five times at intervals of three days, and then, on the 21th day, the mice were sacrificed to be subjected to analysis by the above-described method (FIG. 9F).

[7] = system: target gene expression of the CP2c transcription factor complex; experiment: Luc reporter assay, GATA1 enhancer, 293T cells transduced with CBP complex protein overexpression vectors; assay type: cell-based
Procedure: Therefore, Luc reporter assay was carried out to analyze whether a decrease in the target gene expression of the CP2c transcription factor complex due to MBD2 or p66α overexpression is restored by the treatment with a compound for inhibiting the interaction between the MBD2 and p66α selected in the previous step (FIGS. 2A and 2B). Here, as a CP2c transcription factor target sequence that controls Luc reporter gene expression, a GATA1 enhancer was used, and 293T cells were transduced with various combinations of CBP complex protein overexpression vectors and then used for analysis.

MEL cell line [8] = experiment: Cell cycle analysis by FACS and karyotype analysis of MEL cells; assay type: cell-based, murine
[9] = system: various cancer cell lines; experiment: MTT assay cell viability, all cancer cell lines; assay type: cell-based
Procedure: as §1

[10] = 16.5 μM and 40 μM, western blotting over time
[11] = dosing started 7 days after MEL injection, day 21

NCC(=O)NC[C@H]1COc2ccccc2O1 [Formula 1]
apoptosis-associated caspases (MEL cells; [10]): activated | expression of the apoptosis inhibition marker (MEL cells; [10]): decreased | expression of the apoptosis promotion marker (MEL cells; [10]): increased | activities of cyclin/CDK controlling the checkpoints of the cell cycle (MEL cells; western blotting, by concentration and time): decreased | IC50 [1]: 213 µM | IC50 ([2]; average, read-out: IC50 average): 50 µM | IC50 ([2]; range over cell lines, read-out: IC50 values): 6 to 218 µM | expression of epithelial cell marker proteins (β-catenin, E-cadherin) [3]: decreased | expression of mesenchymal cell marker proteins (Snail, slug, N-cadherin) [3]: significantly decreased | effect on migration and invasion abilities [4]: significant inhibitory effect | IC50 [5]: 1780 µM | side effects in normal tissue/blood (MEL cell line [6]; MEL-implanted mice): no side effects | histological characteristics of the major organs and overall hematological characteristics (MEL cell line [6]; dosing from MEL injection, day 16): normal | histological characteristics of the major organs and overall hematological characteristics (MEL cell line [6]; [11]): normal | tumor cells in the blood, spleen and liver (MEL cell line [6]; [11]): no tumor cells | splenomegaly caused by the MEL cells (MEL cell line [6]; dosing started 7 days after MEL injection, i.v. five times at intervals of three days, day 21, concentration-dependent): disappeared | splenomegaly caused by the MEL cells (MEL cell line [6]; i.v. 12.2, 24.4, 48.8 μg/Kg five times at intervals of three days from MEL injection, day 16, concentration-dependent): disappeared | tumor cells in the blood, spleen and liver (MEL cell line [6]; i.v. five times at intervals of three days from MEL injection, day 16): no tumor cells | white blood cell level (MEL cell line [6]; slightly higher concentration, day 16): reduced | restoration of the inhibition of target gene expression by MBD2 overexpression [7]: did not restore | restoration of the inhibition of target gene expression by p66α overexpression [7]: restored | G0/G1 group (MEL cell line [8]; FACS): reduction | G2/M group (MEL cell line [8]; FACS): increase | aneuploidy cell group (MEL cell line [8]; FACS): significant increases | subG1 (cell group dying by apoptosis) (MEL cell line [8]; FACS): significant increases | aneuploidy (MEL cell line [8]; FACS after synchronization at G1/S by thymidine double block): remarkably induced | chromosomes (karyotype analysis) (MEL cell line [8]; karyotype analysis): abnormally increased

CC(C)(C)OC(=O)N1CC[C@@H](CC(=O)CN)C1 [Formula 2]
IC50 values (in words) ([9]; uniform in all cancer cell lines): slightly higher IC50 values | growth and cell death of cell lines ([9]; various cancer cell lines): effects of inhibiting the growth and inducing cell death | expression of epithelial cell marker proteins (β-catenin, E-cadherin) [3]: decreased | expression of mesenchymal cell marker proteins (Snail, slug, N-cadherin) [3]: significantly decreased | effect on migration and invasion abilities [4]: significant inhibitory effect | restoration of the inhibition of target gene expression by MBD2 overexpression [7]: restored | restoration of the inhibition of target gene expression by p66α overexpression [7]: did not restore
